The numbers were not newly measured in patent publication US20240216293A1, “USE OF PERILLYL ALCOHOL TO ENHANCE LEVO-DOPA DELIVERY” (NEONC TECHNOLOGIES, INC, priority 2021, published 2024), which cites them from elsewhere.

This series relates to patients with recurrent malignant gliomas. The following applies: Phase I/IIa trials, intranasal.

Consider `C=C(C)C1CC=C(CO)CC1` (stereo not shown) [NEO100, perillyl alcohol], for which the toxic side effects entry is “without toxic side effects”.
